Results on 13 molecules are retold here after PubChem BioAssay AID180 (DTP/NCI, 2004).

Several values for one entry are separate records, joined by “and”; a condition that tells them apart may be missing. Equal values may be shown once.

The test system of the experiment is BDF1 mice, Adenocarcinoma 755 s.c., tumor weight T/C. Briefly: NCI In Vivo Anticancer Drug Screen. Data for tumor model Adenocarcinoma 755 (subcutaneous) in B6D2F1 (BDF1) mice. Conditions: endpoint: mean tumor weight, higher = larger tumour. The essentials:
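Values express treated (T) relative to vehicle-dosed control (C) animals, based on survival or tumour size measured after compound treatment of mice bearing a transplanted tumour.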

Where [1] appears, read: dose: 75.0 mg/kg/injection, schedule: Q01DX011 (ip), vehicle: saline.
[2] abbreviates: dose: 1.5 mg/kg/injection, schedule: Q01DX011 (ip), vehicle: carboxymethylcellulose (CMC).
Setting [3] is: dose: 3.0 mg/kg/injection, schedule: Q01DX011 (ip), vehicle: carboxymethylcellulose (CMC).
Setting [4] is: dose: 8.0 mg/kg/injection, schedule: Q01DX011 (ip), vehicle: carboxymethylcellulose (CMC).
Where [5] appears, read: dose: 50.0 mg/kg/injection, schedule: Q01DX011 (ip), vehicle: carboxymethylcellulose (CMC).
Setting [6] is: dose: 0.5 mg/kg/injection, schedule: Q01DX011 (ip), vehicle: methylcellulose (MC).
Setting [7] is: dose: 1.0 mg/kg/injection, schedule: Q01DX011 (ip), vehicle: methylcellulose (MC).
[8] abbreviates: dose: 2.0 mg/kg/injection, schedule: Q01DX011 (ip), vehicle: methylcellulose (MC).

Regarding `Nc1ncnc2nc(/N=N/SCCC(=O)O)[nH]c12`, the T/C runs as follows: (dose: 37.5 mg/kg/injection, schedule: Q01DX011 (ip), vehicle: saline) 205 % of control; under setting [1], 123 % of control; (dose: 150.0 mg/kg/injection, schedule: Q01DX011 (ip), vehicle: saline) 56 % of control.

Consider `CCC1=C(c2cc(Cl)c3ccccc3c2OCC(=O)O)OC(CC)(C(=O)c2cc(Cl)c3ccccc3c2OCC(=O)O)CC1` (centres undefined), for which the T/C (dose: 30.0 mg/kg/injection, schedule: Q01DX011 (ip), vehicle: alkali diluted with saline) was 152 % of control.

For `CCCCOP(=S)(N1CC1)N1CC1`, the T/C runs as follows: (dose: 0.19 mg/kg/injection, schedule: Q01DX011 (ip), vehicle: other) 44 % of control; (dose: 0.19 mg/kg/injection, schedule: Q01DX011 (ip), vehicle: saline) 102 % of control; (dose: 0.37 mg/kg/injection, schedule: Q01DX011 (ip), vehicle: other) 38 % of control; (dose: 0.37 mg/kg/injection, schedule: Q01DX011 (ip), vehicle: saline) 97 % of control; (dose: 0.75 mg/kg/injection, schedule: Q01DX011 (ip), vehicle: carboxymethylcellulose (CMC)) 73 % of control; (dose: 0.75 mg/kg/injection, schedule: Q01DX011 (ip), vehicle: other) 26 % of control. Besides, the T/C (dose: 0.75 mg/kg/injection, schedule: Q01DX011 (ip), vehicle: saline) is 113 % of control; the T/C under setting [2] was 78 % of control; the T/C (dose: 1.5 mg/kg/injection, schedule: Q01DX011 (ip), vehicle: other) is 14 % of control; the T/C (dose: 1.5 mg/kg/injection, schedule: Q01DX011 (ip), vehicle: saline) is 90 % of control; the T/C under setting [3] was 23 % of control; the T/C (dose: 3.0 mg/kg/injection, schedule: Q01DX011 (ip), vehicle: other) was 7 % of control. The T/C was 42 % of control (dose: 3.0 mg/kg/injection, schedule: Q01DX011 (ip), vehicle: saline); 460 % of control (dose: 3.0 mg/kg/injection, schedule: Q## X000 (ip), vehicle: saline); 153 % of control (dose: 6.0 mg/kg/injection, schedule: Q## X000 (ip), vehicle: saline); 23 % of control (dose: 12.0 mg/kg/injection, schedule: Q## X000 (ip), vehicle: saline).

Turning to `O=C(OCC1OC(n2cnc3c(=S)nc[nH]c32)C(OC(=O)c2ccccc2)C1OC(=O)c1ccccc1)c1ccccc1` (centres undefined), the T/C under setting [4] was 98 % of control; the T/C (dose: 15.0 mg/kg/injection, schedule: Q01DX011 (ip), vehicle: carboxymethylcellulose (CMC)) is 91 % of control; the T/C (dose: 31.0 mg/kg/injection, schedule: Q01DX011 (ip), vehicle: carboxymethylcellulose (CMC)) is 99 % of control; the T/C (dose: 32.0 mg/kg/injection, schedule: Q01DX011 (ip), vehicle: carboxymethylcellulose (CMC)) was 53 % of control; the T/C under setting [5] is 53 % of control; the T/C (dose: 100.0 mg/kg/injection, schedule: Q01DX011 (ip), vehicle: carboxymethylcellulose (CMC)) is 7 % of control. The T/C is 2 % of control and 6 % of control and 12 % of control (dose: 125.0 mg/kg/injection, schedule: Q01DX011 (ip), vehicle: carboxymethylcellulose (CMC)); 1 % of control (dose: 250.0 mg/kg/injection, schedule: Q01DX011 (ip), vehicle: carboxymethylcellulose (CMC)).

In the case of `CCCCN(C)N=Nc1ccc(CCCC(=O)OCC)cc1`, the T/C was 64 % of control (dose: 25.0 mg/kg/injection, schedule: Q01DX011 (ip), vehicle: saline); 57 % of control (dose: 50.0 mg/kg/injection, schedule: Q01DX011 (ip), vehicle: saline); 50 % of control under setting [1].

Consider `CCCCN(C)N=Nc1ccc(OCC(=O)NN)cc1`, for which the T/C under setting [5] was 75 % of control.

With `C[C@]12CCC(=O)C=C1CC[C@@H]1[C@@H]2[C@@H](O)C[C@@]2(C)[C@H]1CC[C@]2(O)C(=O)CO`, the T/C by setting is: (dose: 2.5 mg/kg/injection, schedule: Q01DX011 (sc), vehicle: steriod suspending solution) 96 % of control; (dose: 4.0 mg/kg/injection, schedule: Q01DX011 (sc), vehicle: steriod suspending solution) 49 % of control; (dose: 5.0 mg/kg/injection, schedule: Q01DX011 (sc), vehicle: steriod suspending solution) 110 % of control; (dose: 8.7 mg/kg/injection, schedule: Q01DX011 (sc), vehicle: steriod suspending solution) 49 % of control; (dose: 10.0 mg/kg/injection, schedule: Q01DX011 (sc), vehicle: steriod suspending solution) 56 % of control; (dose: 17.5 mg/kg/injection, schedule: Q01DX011 (sc), vehicle: steriod suspending solution) 32 % of control. Further, the T/C (dose: 20.0 mg/kg/injection, schedule: Q01DX011 (sc), vehicle: steriod suspending solution) was 32 % of control and 34 % of control; the T/C (dose: 35.0 mg/kg/injection, schedule: Q01DX011 (sc), vehicle: steriod suspending solution) is 24 % of control; the T/C (dose: 40.0 mg/kg/injection, schedule: Q01DX011 (sc), vehicle: steriod suspending solution) was 11 % of control; the T/C (dose: 70.0 mg/kg/injection, schedule: Q01DX011 (sc), vehicle: steriod suspending solution) was 8 % of control; the T/C (dose: 80.0 mg/kg/injection, schedule: Q01DX011 (sc), vehicle: steriod suspending solution) was 13 % of control; the T/C (dose: 140.0 mg/kg/injection, schedule: Q01DX011 (sc), vehicle: steriod suspending solution) was 1 % of control.

Take `CCSc1ncc(Br)c(Sc2nc(N)nc3nc[nH]c23)n1`: the T/C (dose: 0.5 mg/kg/injection, schedule: Q01DX011 (ip), vehicle: carboxymethylcellulose (CMC)) is 69 % of control; the T/C under setting [6] is 68 % of control; the T/C (dose: 1.0 mg/kg/injection, schedule: Q01DX011 (ip), vehicle: carboxymethylcellulose (CMC)) is 17 % of control and 30 % of control; the T/C under setting [7] is 37 % of control; the T/C under setting [2] is 18 % of control; the T/C (dose: 2.0 mg/kg/injection, schedule: Q01DX011 (ip), vehicle: carboxymethylcellulose (CMC)) is 57 % of control. The T/C is, setting by setting: under setting [3], 3 % of control and 5 % of control and 23 % of control; (dose: 4.0 mg/kg/injection, schedule: Q01DX011 (ip), vehicle: carboxymethylcellulose (CMC)) 2 % of control; (dose: 6.0 mg/kg/injection, schedule: Q01DX011 (ip), vehicle: carboxymethylcellulose (CMC)) 2 % of control; under setting [4], 15 % of control; (dose: 12.0 mg/kg/injection, schedule: Q01DX011 (ip), vehicle: carboxymethylcellulose (CMC)) 3 % of control.

`O=CNC(Cc1cccc(N(CCCl)CCCl)c1)C(=O)O` (centres undefined): the T/C reads like this: (dose: 0.25 mg/kg/injection, schedule: Q01DX011 (ip), vehicle: methylcellulose (MC)) 96 % of control; under setting [6], 59 % of control; under setting [7], 57 % of control; (dose: 1.1 mg/kg/injection, schedule: Q01DX011 (ip), vehicle: methylcellulose (MC)) 36 % of control; under setting [8], 41 % of control; (dose: 2.25 mg/kg/injection, schedule: Q01DX011 (ip), vehicle: methylcellulose (MC)) 22 % of control. Further, the T/C (dose: 4.5 mg/kg/injection, schedule: Q01DX011 (ip), vehicle: methylcellulose (MC)) was 4 % of control.

Regarding `Cn1c(=N)nc(SCc2ccccc2Cl)c2[nH]cnc21`, the T/C runs as follows: (dose: 30.0 mg/kg/injection, schedule: Q01DX011 (ip), vehicle: carboxymethylcellulose (CMC)) 88 % of control; (dose: 60.0 mg/kg/injection, schedule: Q01DX011 (ip), vehicle: carboxymethylcellulose (CMC)) 118 % of control; (dose: 120.0 mg/kg/injection, schedule: Q01DX011 (ip), vehicle: carboxymethylcellulose (CMC)) 88 % of control; (dose: 240.0 mg/kg/injection, schedule: Q01DX011 (ip), vehicle: carboxymethylcellulose (CMC)) 16 % of control.

With `CC1CN1C(=O)c1cc(C(=O)N2CC2C)cc(C(=O)N2CC2C)c1` (centres undefined), the T/C was 69 % of control (dose: 15.0 mg/kg/injection, schedule: Q01DX011 (ip), vehicle: methylcellulose (MC)); 57 % of control and 64 % of control (dose: 30.0 mg/kg/injection, schedule: Q01DX011 (ip), vehicle: methylcellulose (MC)).

Take `CCc1nc(N)nc(N)c1-c1ccc(Cl)c(Cl)c1`: the T/C under setting [6] is 51 % of control; the T/C under setting [7] was 62 % of control and 71 % of control; the T/C under setting [8] is 52 % of control.

Regarding `COc1ncnc2nc[nH]c12`, the T/C reads like this: (dose: 62.0 mg/kg/injection, schedule: Q01DX011 (ip), vehicle: other) 107 % of control; (dose: 125.0 mg/kg/injection, schedule: Q01DX011 (ip), vehicle: other) 90 % of control; (dose: 250.0 mg/kg/injection, schedule: Q01DX011 (ip), vehicle: other) 44 % of control.
